Activity calls are given as the source filed them.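 How the source made its calls: active means viability at the highest tested concentration below 50%; inactive means the rest.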
Experiments:
[1] = viability loss, cell-based, CellTiter-Glo luminescence, cherry picks 01-02, cytotoxicity control for ABCB6 inhibitor project, dose response (AID 651655); conditions: K562 vector control cells viability, CellTiter-Glo, 18 h; at 100 µM (top of the series)
[2] = tested on: K562 vector control cells viability, CellTiter-Glo, 18 h; assay: as above

CCN(CC)S(=O)(=O)c1cccc(-n2c(O)c(C=Nc3ccccc3C(=O)O)c3ccccc3c2=O)c1
viability [1]: 79% (inactive)

Cc1cccc(C)c1NC(=O)c1nc(S(=O)(=O)Cc2ccccc2)ncc1Cl
EC50 [2]: 979 nM

Cc1nnc(NC(=O)c2nc(S(=O)(=O)Cc3ccccc3)ncc2Cl)s1
EC50 [2]: 2050 nM

CC(=O)Nc1ccc(NC(=O)c2nc(S(=O)(=O)Cc3ccccc3)ncc2Cl)cc1
EC50 [2]: 911 nM

Cc1ccc(CS(=O)(=O)c2ncc(Cl)c(C(=O)Nc3nnc(C(C)C)s3)n2)cc1
EC50 [2]: 596 nM

CCOc1ccccc1NC(=O)c1nc(S(=O)(=O)Cc2cccc(C)c2)ncc1Cl
EC50 [2]: 715 nM

CC(=O)Nc1ccc(NC(=O)c2nc(S(=O)(=O)Cc3cccc(C)c3)ncc2Cl)cc1
EC50 [2]: 660 nM

CCOC(=O)c1ccc(NC(=O)c2nc(S(=O)(=O)Cc3ccccc3)ncc2Cl)cc1
EC50 [2]: 1930 nM

CCc1ccc(NC(=O)c2nc(S(=O)(=O)Cc3ccccc3)ncc2Cl)cc1
EC50 [2]: 390 nM

CCCc1nnc(NC(=O)c2nc(S(=O)(=O)Cc3cccc(C)c3)ncc2Cl)s1
viability [1]: 71.2% (inactive)

C[N+](C)(C)CC1CCCC(C[N+](C)(C)C)C1=O (stereo not given)
viability [1]: 67.5% (inactive)

Cc1cccc(CS(=O)(=O)c2ncc(Cl)c(C(=O)Nc3ccc(F)cc3)n2)c1
viability [1]: 90.2% (inactive)

COC(=O)c1ccc(NC(=O)c2nc(S(=O)(=O)Cc3cccc(C)c3)ncc2Cl)cc1
viability [1]: 82.7% (inactive)

Cc1ccc(CS(=O)(=O)c2ncc(Cl)c(C(=O)Nc3ccc(OC(F)F)cc3)n2)cc1
EC50 [2]: 741 nM

Cc1cccc(CS(=O)(=O)c2ncc(Cl)c(C(=O)Nc3nnc(C(C)C)s3)n2)c1
EC50 [2]: 627 nM

Cc1ccc(NC(=O)c2nc(S(=O)(=O)Cc3ccccc3)ncc2Cl)cc1
viability [1]: 80.4% (inactive)

Cc1ccccc1CS(=O)(=O)c1ncc(Cl)c(C(=O)Nc2ccc(F)cc2)n1
viability [1]: 61.6% (inactive)

O=C(Nc1ccc(F)cc1)c1nc(S(=O)(=O)Cc2ccccc2)ncc1Cl
viability [1]: 81.6% (inactive)

CCOc1ccccc1NC(=O)c1nc(S(=O)(=O)Cc2ccccc2)ncc1Cl
EC50 [2]: 2200 nM

Cc1ccc(NC(=O)c2nc(S(=O)(=O)Cc3ccccc3C)ncc2Cl)cc1C
EC50 [2]: 758 nM

— PubChem BioAssay AID651655 (NMMLSC, 2012)
